From patent US4266034A, “Method for producing microbial cells and use thereof to produce oxidation products” (priority 1979, dated 1981)

What was measured:
[1] = test system: cell-free particulate fractions derived from the methylotrophic microorganisms; assay: Inhibition of conversion of C3-C6 n-alkanes to sec. alcohols by cell-free particulate fractions; assay type: biochemical; conditions: oxygen and NADH
From the text: The conditions for preparing the cell suspensions or the cell-free particulate fractions from methane-grown methylotroph microorganisms is the same as described above. […] Tables XXV and XXVI show the conversion of C3 -C6 n-alkanes to the corresponding secondary alcohols using cell suspensions and cell-free particulate fractions, respectively, of methane-grown methylotroph microorganisms.

[2] = test system: secondary alcohol dehydrogenase; assay: Purified yeast-derived secondary alcohol dehydrogenase activity; assay type: biochemical, Pichia sp. NRRL Y-11,328; conditions: purified enzyme
Experimental: Large scale cultures of Pichia sp. NRRL Y-11,328 were grown with aeration at 30° C. in a 14-liter New Brunswick f fermentor in a mineral salt medium containing methanol (0.4%, v/v) as the sole carbon source. The cells (200 g., wet weight) were suspended in […] sodium phosphate buffer, pH 7.0, containing 1 mM dithiothreitol (buffer A), and crude extracts were prepared as described previously. To the crude extracts, 18 ml. of protamine sulfate solution [2% solution in 0.1 M tris (hydroxymethyl) aminomethane (tris) base] was added dropwise with continuous stirring. After standing for 30 min., the extracts were centrifuged at 20,000×g. for 60 min. The supernatant solution was fractionated with solid ammonium sulfate. Extracts were brought to 50% of saturation with respect to ammonium sulfate by addition of 313 g. of the salt per liter of extract. Precipitated proteins was removed by centrifugation, and 137 g. of ammonium sulfate was added per liter of the supernatant liquid to bring it to 70% of saturation. Material precipitating between 50 and 70% of saturation was collected by centrifugation and dissolved in buffer A. This preparation was dialyzed overnight against buffer A, and the dialyzed material was applied to a DEAE-cellulose column (5×40 cm) that had been equilibrated with buffer A. The sample was washed with 200 ml. of buffer A and eluted with 2 liters of buffer A that contained NaCl in a linear gradient running from a concentration of 0 to 0.5 M. Fractions of 15 ml. were collected. Fractions containing secondary alcohol dehydrogenase activity were pooled and were termed DEAE-cellulose eluate. The DEAE-cellulose eluate was concentrated by ammonium sulfate fractionation.
Secondary alcohol dehydrogenase activity was measured spectrophotometrically at 340 nm with a NAD^+ as an electron acceptor. The reaction mixture, in a total 3.0 ml., contained 50 mM phosphate buffer, pH 8.0, 5 μmoles NAD^+, crude extracts, and substrate. […] Protein concentration was determined by the method of Lowry et al.
The substrate specificity of the purified secondary alcohol dehydrogenase was examined spectrophotometrically.

[3] = test system: secondary alcohol dehydrogenase (SADH); assay: Purified secondary alcohol dehydrogenase (SADH) activity; assay type: biochemical, Pseudomonas sp. ATCC 21439; conditions: each inhibitor 1 mM; measured spectrofluorometrically
Experimental: Secondary alcohol dehydrogenase (SADH) from an obligate methanol utilizer, Pseudomonas sp. ATCC 21439 was purified as follows. […] 0.05 M sodium phosphate buffer, pH 7.0 with 0.5 mM dithiothretol (buffer A) and were disrupted sonically (5×1 min.). The crude extract was separated by centrifugation. The crude extract was heat-treated at 50° C. in a water bath for 10 minutes. The resulting precipitate was removed by centrifugation. To the supernatant solution, 25 ml of protamine sulfate solution (2% solution in 0.1 M Tris base) was added dropwise with continuous stirring. After standing for 30 minutes, the extract was centrifuged. The supernatant solution was fractionated with solid ammonium sulfate. The material precipitating between 30 and 60% saturation was collected and was dialized overnight against buffer A. The The dialized material was applied to a DEAE-cellulose column (3 cm by 35 cm) that had been equilibrated with buffer A. The secondary alcohol dehydrogenase activity was eluted in the void volume. This DEAE-cellulose eluate was concentrated by ammonium sulfate fractionation. Material precipitating between 30 and 50% ammonium sulfate saturation was collected by centrifugation and dialyzed overnight against A. This fraction was further washed and filtered through an Amicon unit with XM 50 membrane. The concentrated fraction (6 ml) inside the Amicon unit was applied to an Affi-Gel Blue column (0.8 cm×18 cm) which had been equilibrated with buffer A for affinity chromatography. The column was washed overnight with buffer A (0.18 ml./min.) and then was eluted with buffer A containing 5 mM NAD. Each 1 ml. fraction was collected.
The purified secondary alcohol dehydrogenase enzyme (SADH) may be used directly for converting C3 -C6 secondary alcohols to the corresponding methyl ketones by the procedures described above; however, a source of NAD^+ must be added to the reaction medium. One can determine the NAD-linked secondary alcohol dehydrogenase activity with a fluorescence spectrophotometer (Perkin Elmer, Model MPF 44A) by following the formation of reduced NAD (Ex 340 nm, Em 460 nm). The assay system (3 ml.) will typically contain: sodium phosphate buffer pH 7.0, 150 μmol; NAD 1.0 μmol; a given amount of enzyme preparation; and 20 μmol secondary alcohol. The reaction is started by the addition of secondary alcohol. One unit of SADH enzyme activity represents the reduction of one nmole NAD per minute.
The effect of metal-chelating agents and thioreagents on the activity of the purified SADH enzyme were studied. […] The possibility of ethanol or n-propanol as an inhibitor was studied.

[4] = test system: methanol-grown Methylococcus capsulatus CRL M1 (NRRL B-11,219); assay: Production of 2-butanone from 2-butanol by cell suspensions, inhibition studies; assay type: cell-based; conditions: 1 mM

With c1cnc2c(c1)ccc1cccnc12 [1,10-Phenanthroline] the “inhibition of the conversion of n-alkanes to sec. alcohols” value [1] was “inhibited”, the “inhibition of secondary alcohol dehydrogenase activity” value [2] was “strongly inhibited” and the “% inhibition of SADH activity” value [3] was 95%. For the same compound, the “Inhibition of 2-butanone production (yes/no)” value [4] was “inhibited”.
